These results are taken from patent EP1584686A1, “Progenitor cell preservation factors and related methods and products” (ImClone Systems Incorporated, priority 1999, dated 2001).

One series concerns mice. The following applies: single dose 150 mg/kg; Lerner and Harrison 1990; cited from earlier work.
In a further series the target is T1, Dl-FRIL (Lablab purpureus, UniProt Q9ZTA9).
T1 sequence (Q9ZTA9 9-272): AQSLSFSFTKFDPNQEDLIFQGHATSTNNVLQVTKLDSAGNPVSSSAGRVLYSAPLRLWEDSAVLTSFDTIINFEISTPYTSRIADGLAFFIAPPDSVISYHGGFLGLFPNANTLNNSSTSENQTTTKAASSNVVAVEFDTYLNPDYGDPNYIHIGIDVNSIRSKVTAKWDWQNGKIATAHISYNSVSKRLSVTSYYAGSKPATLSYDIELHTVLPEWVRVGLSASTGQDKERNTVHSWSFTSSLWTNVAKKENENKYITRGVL
The following applies: Mo et al., Glycobiology 9:173-179,1999; cited from earlier work.

In series [1] the target is FLT3 receptor on FLT3-transfected 3T3 cells (chimeric murine FLT3/human Fms receptor or full length human receptor, not told apart). Description: cell-based or functional assay.

`O=c1[nH]cc(F)c(=O)[nH]1` [5-FU, 5-fluorouracil]: in the series on mice, the “reduction of bone marrow cellularity” value is on record as greater than 90%. In the case of `OC[C@H]1O[C@H](O[C@H]2O[C@H](CO)[C@@H](O)[C@H](O)[C@H]2O)[C@H](O)[C@@H](O)[C@@H]1O` [α,α-trehalose], the “potency greater than mannose” value on Dl-FRIL is listed as 3.6 fold. Consider “Pv-FRIL (Phaseolus vulgaris FRIL), native, purified from PHA-LCM or from red kidney bean extract”, for which the Specific Activity (u/mg) in the Flt3 3T3 assay, after the Superdex 75 step in series [1] was 244000 units/mg.
